Source: BigSolDB 2.1

C=C1C[C@]23C[C@@]1(O)CC[C@H]2[C@@]12C=C[C@H](O)[C@@](C)(C(=O)O1)[C@H]2[C@@H]3C(=O)O
solubility (mole fraction)
Conditions	278.15 K	283.15 K	288.15 K	293.15 K	298.15 K	303.15 K	308.15 K	313.15 K	318.15 K	323.15 K
in DMSO	0.121	0.138	0.159	0.184	0.207	0.233	0.263	0.291	0.323	0.362
in THF	0.149	0.173	0.199	0.227	0.252	0.279	0.31	0.341	0.371	0.401
in acetone	0.103	0.12	0.137	0.158	0.181	0.205	0.23	0.258	0.289	0.32
in acetonitrile	0.00864	0.0119	0.0155	0.0197	0.0243	0.0294	0.0352	0.0413	0.0481	0.0565
in chloroform	0.0222	0.0302	0.0386	0.0479	0.0591	0.0715	0.085	0.0994	0.114	0.13
in ethanol	0.181	0.205	0.231	0.257	0.284	0.312	0.344	0.374	0.404	0.438
in ethyl acetate	0.0679	0.0807	0.0956	0.112	0.132	0.152	0.175	0.203	0.235	0.271
in isopropanol	0.000502	0.000563	0.000625	0.000688	0.000752	0.000821	0.000888	0.00096	0.00103	0.00111
in n-butanol	0.0021	0.00318	0.00427	0.00554	0.00704	0.00876	0.0107	0.0129	0.0151	0.0173
in n-heptane	8.4e-05	0.000116	0.000152	0.000192	0.000236	0.000289	0.000349	0.000407	0.000471	0.000537
in n-hexane	0.00017	0.000202	0.000239	0.000282	0.00033	0.000386	0.000444	0.000511	0.000583	0.000666
